Data as given in patent US8268814B2, “Substituted sulfonamide compounds” (Gruenenthal GmbH, priority 2008, dated 2012).

Experiments:
[1] = biological target: T1, B1R receptor of the rat (rB1R) (Rattus norvegicus, UniProt P97583); experiment: Functional FLIPR Ca2+ assay on the bradykinin 1 receptor, rat (rB1R CHO K1 cells); type: cell-based; conditions: test substance 10 μM; CHO K1 cells transfected with rat B1R gene; agonist Des-Arg9-bradykinin at EC80; % inhibition compared with maximum achievable inhibition; read-out: B1R antagonism, rat [10 μM] % inhibition
T1 construct: expressed in transfected cells; host or cells: CHO K1 cells (Chinese hamster ovary), stably transfected
T1 sequence (P97583 1-337): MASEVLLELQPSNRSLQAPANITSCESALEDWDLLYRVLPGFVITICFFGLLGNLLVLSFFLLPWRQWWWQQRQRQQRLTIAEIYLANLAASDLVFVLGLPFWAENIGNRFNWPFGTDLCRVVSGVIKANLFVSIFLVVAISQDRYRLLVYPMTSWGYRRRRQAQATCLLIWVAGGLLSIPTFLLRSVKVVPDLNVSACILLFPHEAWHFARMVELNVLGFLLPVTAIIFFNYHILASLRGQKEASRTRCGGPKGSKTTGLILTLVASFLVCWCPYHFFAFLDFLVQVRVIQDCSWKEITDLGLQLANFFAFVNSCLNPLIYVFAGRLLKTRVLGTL
Procedure: (§1) The agonistic or antagonistic action of substances can be quantified on the bradykinin 1 receptor (B1R) of the human and rat species with ectopically expressing cell lines (CHO K1 cells) and with the aid of a Ca^2+-sensitive dyestuff (Fluo-4) in a fluorescent imaging plate reader (FLIPR). The figure in % activation is based on the Ca^2+ signal after addition of Lys-Des-Arg^9-bradykinin (0.5 nM) or Des-Arg^9-bradykinin (100 nM). Antagonists lead to a suppression of the Ca^2+ inflow after addition of the agonist. % inhibition compared with the maximum achievable inhibition is stated.
(§2) The agonistic or antagonistic action of substances can be determined on the bradykinin 1 receptor (B1R) of the human and rat species with the following assay. In accordance with this assay, the Ca^2+ inflow through the channel is quantified with the aid of a Ca^2+-sensitive dyestuff (type Fluo-4, Molecular Probes Europe BV, Leiden, Holland) in a fluorescent imaging plate reader (FLIPR, Molecular Devices, Sunnyvale, USA).
(§3) Chinese hamster ovary cells (CHO K1 cells) transfected stably with the human B1R gene (hB1R cells) or the B1R gene of the rat (rB1R cells) are used. For functional studies, these cells are plated out on black 96-well plates with a clear base (BD Biosciences, Heidelberg, Germany or Greiner, Frickenhausen, Germany) in a density of 20,000-35,000 cells/well. The cells are left overnight at 37° C. and 5% CO2 in culture medium (hB1R cells: Nutrient Mixture Ham's F12, Gibco Invitrogen GmbH, Karlsruhe, Germany or DMEM, Sigma-Aldrich, Taufkirchen, Germany; rB1R cells: D-MEM/F12, Gibco Invitrogen GmbH, Karlsruhe, Germany) with 10 vol. % FBS (foetal bovine serum, Gibco Invitrogen GmbH, Karlsruhe, Germany or PAN Biotech GmbH, Aidenbach, Germany). On the following day, the cells are loaded for 60 min at 37° C. with 2.13 μM Fluo-4 (Molecular Probes Europe BV, Leiden, Holland) in HBSS buffer (Hank's buffered saline solution, Gibco Invitrogen GmbH, Karlsruhe, Germany) with 2.5 mM probenecid (Sigma-Aldrich, Taufkirchen, Germany) and 10 mM HEPES (Sigma-Aldrich, Taufkirchen, Germany). The plates are then washed 2× with HBSS buffer, and HBSS buffer which additionally contains 0.1% BSA (bovine serum albumin; Sigma-Aldrich, Taufkirchen, Germany), 5.6 mM glucose and 0.05% gelatine (Merck KgaA, Darmstadt, Germany) is added. After a further incubation of 20 minutes at room temperature, the plates are inserted into the FLIPR for the Ca^2+ measurement.
(§4) Alternatively, the plates are washed with buffer A (15 mM HEPES, 80 mM NaCl, 5 mM KCl, 1.2 mM CaCl2, 0.7 mM MgSO4, 2 g/l glucose, 2.5 mM probenecid), buffer A is added and the plates are loaded with 2.5 μM Fluo-4 and 0.025% Pluronic F127 (Sigma-Aldrich, Taufkirchen, Germany). Thereafter, the cells are washed 2× with buffer A and incubated for 30 minutes with buffer A, which additionally contains 0.05% BSA and 0.05% gelatine, at room temperature and thereafter inserted into the FLIPR for the Ca^2+ measurement. The Ca^2+-dependent fluorescence is measured here before and after addition of substances (λex=488 nm, λem=540 nm). Quantification is by measurement of the highest fluorescence intensity (FC, fluorescence counts) over time.
(§5) The FLIPR protocol consists of 2 additions of substance. Test substances (10 μM) are first pipetted on to the cells and the Ca^2+ inflow is compared with the control (hB1R: Lys-Des-Arg^9-bradykinin >=50 nM; rB1R: Des-Arg^9-bradykinin 10 μM). This gives the figure in % activation based on the Ca^2+ signal after addition of Lys-Des-Arg^9-bradykinin (>=50 nM) or Des-Arg^9-bradykinin (10 μM). After incubation for 10-20 minutes, Lys-Des-Arg^9-bradykinin (hB1R) or Des-Arg^9-bradykinin (rB1R) in the concentration of the EC80 is applied and the inflow of Ca^2+ is likewise determined. Antagonists lead to a suppression of the Ca^2+ inflow. % inhibition compared with the maximum achievable inhibition is calculated. In order to determine the IC50 value, the substances are added in various concentrations. […]

[2] = biological target: T2, human B1R receptor (hB1R) (Homo sapiens, UniProt P46663); experiment: Functional FLIPR Ca2+ assay on the bradykinin 1 receptor, human (hB1R CHO K1 cells); type: cell-based; conditions: test substance 10 μM; CHO K1 cells transfected with human B1R gene; agonist Lys-Des-Arg9-bradykinin at EC80; % inhibition compared with maximum achievable inhibition; read-out: B1R antagonism, human (10 μM] % inhibition
T2 construct: expressed in transfected cells; host or cells: CHO K1 cells (Chinese hamster ovary), stably transfected
T2 sequence (P46663 1-353): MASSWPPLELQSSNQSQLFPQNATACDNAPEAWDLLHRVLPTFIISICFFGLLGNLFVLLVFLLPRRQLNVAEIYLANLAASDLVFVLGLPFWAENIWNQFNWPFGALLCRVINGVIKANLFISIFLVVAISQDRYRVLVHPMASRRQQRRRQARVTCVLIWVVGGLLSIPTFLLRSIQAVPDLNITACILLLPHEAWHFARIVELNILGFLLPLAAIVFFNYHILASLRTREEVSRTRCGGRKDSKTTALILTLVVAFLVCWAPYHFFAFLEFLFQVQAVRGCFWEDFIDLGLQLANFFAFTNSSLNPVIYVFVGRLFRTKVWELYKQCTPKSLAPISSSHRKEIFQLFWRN
Procedure: as §1, §2, §3, §4, §5

Compound	inhibition at 10 µM [1]	inhibition at 10 µM [2]
Cc1cc(S(=O)(=O)N2CCCCC2CCC(=O)N2CCc3sccc3C2c2ccccc2C)c(C)cc1Cl (stereo not drawn) [Example 11, 3-(1-(4-chloro-2,5-dimethylphenylsulfonyl)piperidin-2-yl)-1-(4-o-tolyl-6,7-dihydrothieno[3,2-c]pyridin-5(4H)-yl)propan-1-one]	60%	7%
Cc1cccc(Cl)c1S(=O)(=O)N1CCCC[C@H]1COCC(=O)N1CCc2sc(CN3CCCCC3)cc2C1 [Example 59, 2-[[(2S)-1-[(2-chloro-6-methyl-phenyl)sulfonyl]-piperidin-2-yl]-methoxy]-1-[2-(piperidin-1-yl-methyl)-4,5,6,7-tetrahydro-thieno[3,2-c]pyridin-5-yl]-ethanone]	104%	100%
COc1cc(C)c(S(=O)(=O)N2CCCC[C@H]2COCC(=O)N2CCc3nc(CN4CCCCC4)sc3C2)c(C)c1 [Example 58, 2-[[(2S)-1-[(4-Methoxy-2,6-dimethyl-phenyl)sulfonyl]-piperidin-2-yl]-methoxy]-1-[2-(piperidin-1-yl-methyl)-4,5,6,7-tetrahydro-thiazolo[5,4-c]pyridin-5-yl]-ethanone]	103%	100%
Cc1cc(S(=O)(=O)N2CCCCC2CCC(=O)N2CCc3sccc3C2c2ccccc2)c(C)cc1Cl (stereo not drawn) [Example 16, 3-(1-(4-chloro-2,5-dimethylphenylsulfonyl)piperidin-2-yl)-1-(4-phenyl-6,7-dihydrothieno[3,2-c]pyridin-5(4H)-yl)propan-1-one]	81%	43%
O=C(C[C@@H](NS(=O)(=O)c1ccc2ccccc2c1)c1ccccc1)N1CCc2sc(CN3CCCCC3)cc2C1 [Example 26, (R)—N-(3-Oxo-1-phenyl-3-(2-(piperidin-1-ylmethyl)-6,7-dihydrothieno[3,2-c]pyridin-5(4H)-yl)propyl)naphthalene-2-sulfonamide]	101%	97%
COc1cc(C)c(S(=O)(=O)N2CCCCC2COCC(=O)N2CCc3onc(-c4ccc(F)cc4)c3C2)c(C)c1 (stereo not drawn) [Example 25, 1-(3-(4-fluorophenyl)-6,7-dihydroisoxazolo[4,5-c]pyridin-5(4H)-yl)-2-((1-(4-methoxy-2,6-dimethylphenylsulfonyl)piperidin-2-yl)methoxy)ethanone]	103%	86%
Cc1ccc(C2c3ccsc3CCN2C(=O)C[C@@H](NS(=O)(=O)c2ccc3ccccc3c2)c2ccccc2)cc1 (stereo partly drawn) [Example 20, N-((1R)-3-oxo-1-phenyl-3-(4-p-tolyl-6,7-dihydrothieno[3,2-c]pyridin-5(4H)-yl)propyl)naphthalene-2-sulfonamide]	96%	11%
COc1cc(C)c(S(=O)(=O)N2CCCCC2COCC(=O)N2CCc3sccc3C2c2cccc(C)c2)c(C)c1 (stereo not drawn) [Example 08, 2-((1-(4-methoxy-2,6-dimethylphenylsulfonyl)piperidin-2-yl)methoxy)-1-(4-m-tolyl-6,7-dihydrothieno[3,2-c]pyridin-5(4H)-yl)ethanone]	106%	48%
COc1cc(C)c(S(=O)(=O)N2CCCCC2CCCC(=O)N2CCc3nc(Cc4ccncc4)sc3C2)c(C)c1 (stereo not drawn) [Example 43, 4-(1-(4-methoxy-2,6-dimethylphenylsulfonyl)piperidin-2-yl)-1-(2-(pyridin-4-ylmethyl)-6,7-dihydrothiazolo[5,4-c]pyridin-5(4H)-yl)butan-1-one]	99%	99%
COc1cc(C)c(S(=O)(=O)N(C)CCOCC(=O)N2CCc3onc(CN4CCCCC4)c3C2)c(C)c1 [Example 13, 4-methoxy-N,2,6-trimethyl-N-(2-(2-oxo-2-(3-(piperidin-1-ylmethyl)-6,7-dihydroisoxazolo[4,5-c]pyridin-5(4H)-yl)ethoxy)ethyl)benzenesulfonamide]	99%	56%
COc1cc(C)c(S(=O)(=O)N2CCCCC2COCC(=O)N2CCc3onc(CN4CCOCC4)c3C2)c(C)c1 (stereo not drawn) [Example 29, 2-((1-(4-methoxy-2,6-dimethylphenylsulfonyl)piperidin-2-yl)methoxy)-1-(3-(morpholinomethyl)-6,7-dihydroisoxazolo[4,5-c]pyridin-5(4H)-yl)ethanone]	101%	99%
COc1cc(C)c(S(=O)(=O)N2CCCCC2CCC(=O)N2CCc3nc(-c4ccncc4)sc3C2)c(C)c1 (stereo not drawn) [Example 52, 3-(1-(4-methoxy-2,6-dimethylphenylsulfonyl)piperidin-2-yl)-1-(2-(pyridin-4-yl)-6,7-dihydrothiazolo[5,4-c]pyridin-5(4H)-yl)propan-1-one]	95%	76%
CCC1c2ccsc2CCN1C(=O)CCCC1CCCCN1S(=O)(=O)c1c(C)cc(OC)cc1C (stereo not drawn) [Example 23, 1-(4-Ethyl-6,7-dihydrothieno[3,2-c]pyridin-5(4H)-yl)-4-(1-(4-methoxy-2,6-dimethylphenylsulfonyl)piperidin-2-yl)butan-1-one]	105%	91%
Cc1cc(S(=O)(=O)N2CCCCC2CCC(=O)N2CCc3sccc3C2c2ccc(Cl)nc2)c(C)cc1Cl (stereo not drawn) [Example 33, 3-(1-(4-chloro-2,5-dimethylphenylsulfonyl)piperidin-2-yl)-1-(4-(6-chloropyridin-3-yl)-6,7-dihydrothieno[3,2-c]pyridin-5(4H)-yl)propan-1-one]	35%	40%
COc1cc(C)c(S(=O)(=O)N2CCC[C@H]2COCC(=O)N2CCc3sc(CN4CCCCC4)cc3C2)c(C)c1 [Example 63, 2-[[(2S)-1-[(4-methoxy-2,6-dimethyl-phenyl)sulfonyl]-pyrrolidin-2-yl]-methoxy]-1-[2-(piperidin-1-yl-methyl)-4,5,6,7-tetrahydro-thieno[3,2-c]pyridin-5-yl]-ethanone]	106%	99%
